Read-outs that look alike come from different tables or passages of the source.
Key:
[1] = system: fasted male C57BL/6J mice; settings: mouse, in vivo
Method: The liver and plasma samples were collected between 6-72 hours after acetaminophen exposure.
ALT assay plasma alanine aminotransferase (ALT) activities were measured using an ALT test kit (Point Scientific, Inc, Canton, MI) per the manufacturer’s instruction.

[2] = system: acetaminophen overdose patients; settings: human, in vivo
Method: A series of experiments were performed in order to evaluate the relevance of the findings from the mouse model (FIGS. 1A-1C), and whether the data can be relevant to humans. Plasma samples ([…]) were from acetaminophen overdose patients, where the plasma samples include 10 survivors with low injury, 30 survivors with high injury and 19 non-survivors. 10 healthy volunteer plasma samples were also obtained for comparison. Patients were categorized based on alanine amino transferase (ALT) level, with survivors with very mild ALT elevations at < 100 U/L categorized as low injury and survivors with peak ALT of 6200 U/L categorized as high injury.
Since the time from acetaminophen exposure until the patient going to the clinic for treatment is highly variable, the day of peak ALT as day 1 was set for all patients to streamline data.
We measured CXCL14 in plasma of acetaminophen-induced injury patients for three days. To make the data more reliable due to the complicated admission day and time of acetaminophen being taken, Day 1 is chosen as the day of peak ALT. We observed no CXCL14 increase in low injury patients (<100 pg/mL). […] In contrast, we found CXCL14 level is significant increased at day 1 (7000 pg/mL), but its level keep elevated by day 3 (8000 pg/mL) with a much higher level compared to the survivors (FIG. 2B). Next, we want to determine whether CXCL14 level in plasma can predict patient outcome.
All results were expressed as mean ± SE. Comparisons between multiple groups were performed with one-way ANOVA or, where appropriate, by two-way ANOVA, followed by a post hoc Bonferroni test. If the data were not normally distributed, we used the Kruskal-Wallis Test (nonparametric ANOVA) followed by Dunn’s Multiple Comparisons Test. P < 0.05 was considered significant. Receiver operating characteristic analysis curve was performed to determine optimal threshold values to discriminate between survivors and non-survivors.

human liver = settings: in vivo
Method: A western blot analysis on the removed liver from a transplant recipient after acetaminophen overdose was carried out to determine whether circulating CXCL14 levels also reflected levels within the human liver. […] Therefore, the biological sample can be a blood sample (or plasma) or a liver sample.
Histology and Immunohistochemistry Formalin-fixed human and mouse tissue samples were embedded in paraffin and 5 µm sections were cut. Sections were stained with hematoxylin and eosin (H&E) for evaluation of the areas of necrosis. Additional liver sections were hydrated and went through antigen retrieval by boiling in sodium citrate buffer (pH 6.0). Liver sections were blocked in 3% BSA and serum then incubated with the primary antibodies overnight. Primary antibodies included anti-rabbit CD68 (Cell Signaling Technology, cat # 26042). Liver sections were washed and incubated in 3% hydrogen peroxide to block endogenous peroxidases. Biotinylated secondary antibody and DAB substrate were used to visualize the signals. Immunofluorescence staining was performed using 5 µm cryosections prepared from OCT-embedded tissue. Sections were blocked with 3% BSA and stained with anti-rabbit CXCL14 (Abcam, cat #264467). Fluorescence conjugated secondary antibodies Alexa Fluor 488 (Invitrogen, cat #A11034) goat anti rabbit was used.
Western blotting snap frozen tissue was homogenized in a CHAPs containing protein buffer and total protein was measured using the BCA assay (Pierce Scientific, Waltham, Massachusetts). Gel electrophoresis was carried out on protein lysates from individual samples, which were then transferred to a nitrocellulose blot.

CC(=O)Nc1ccc(O)cc1 [acetaminophen, N-acetyl-p-aminophenol]
plasma ALT levels ([1]; 300 mg/kg): return to baseline in both doses by 72 hours | plasma ALT levels ([1]; 600 mg/kg): return to baseline in both doses by 72 hours | ALT elevations [2]: < 100 U/L | bilirubin [2]: 12.5 mg/dL | prothrombin times [2]: significantly higher | ALT (human liver): 1620.9 U/L | hepatic levels of CXCL14 (western blot) (human liver): Elevation in hepatic levels of CXCL14 are evident | macrophage staining with CD68 (human liver): significant increase in macrophage staining | necrosis by H&E staining (human liver): significant areas of necrosis | staining for CXCL14 in liver sections (human liver): significant elevations

Source: patent US20230296625A1, “CXCL14 AS PREDICTIVE BIOMARKER FOR ACUTE LIVER FAILURE AND DEATH” (University of Kansas, priority 2022, published 2023)
